Measurements taken from publication PMC12856293 (The Journal of Biological Chemistry, 2025).

Tests used:
TyzAMtb = biological target: T1, TyzAMtb (Mycobacterium tuberculosis, UniProt P95232)
T1 construct: gene Rv2336

TrzSMsmeg = biological target: T2, TrzSMsmeg (Mycolicibacterium smegmatis, UniProt A0QUG4); type: biochemical
T2 construct: gene MSMEG_2198
T2 sequence (A0QUG4 1-723): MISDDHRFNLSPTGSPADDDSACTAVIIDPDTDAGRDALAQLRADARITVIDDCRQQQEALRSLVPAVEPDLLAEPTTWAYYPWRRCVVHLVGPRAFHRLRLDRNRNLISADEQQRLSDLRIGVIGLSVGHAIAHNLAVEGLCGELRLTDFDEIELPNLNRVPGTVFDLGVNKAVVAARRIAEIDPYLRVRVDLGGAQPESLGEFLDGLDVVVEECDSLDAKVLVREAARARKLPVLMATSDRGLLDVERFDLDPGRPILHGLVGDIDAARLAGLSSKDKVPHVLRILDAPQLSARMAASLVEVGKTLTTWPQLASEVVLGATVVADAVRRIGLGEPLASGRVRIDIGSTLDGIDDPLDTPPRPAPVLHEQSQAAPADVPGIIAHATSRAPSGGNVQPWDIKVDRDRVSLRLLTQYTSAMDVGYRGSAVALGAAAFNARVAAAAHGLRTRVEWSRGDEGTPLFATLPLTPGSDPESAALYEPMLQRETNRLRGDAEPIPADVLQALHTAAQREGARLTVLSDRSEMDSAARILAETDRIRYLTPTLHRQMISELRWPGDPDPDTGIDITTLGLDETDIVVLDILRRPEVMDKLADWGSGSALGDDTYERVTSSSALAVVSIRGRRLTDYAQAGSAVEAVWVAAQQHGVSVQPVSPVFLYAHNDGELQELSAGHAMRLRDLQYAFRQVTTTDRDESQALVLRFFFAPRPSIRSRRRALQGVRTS

T1 sequence (P95232 1-322): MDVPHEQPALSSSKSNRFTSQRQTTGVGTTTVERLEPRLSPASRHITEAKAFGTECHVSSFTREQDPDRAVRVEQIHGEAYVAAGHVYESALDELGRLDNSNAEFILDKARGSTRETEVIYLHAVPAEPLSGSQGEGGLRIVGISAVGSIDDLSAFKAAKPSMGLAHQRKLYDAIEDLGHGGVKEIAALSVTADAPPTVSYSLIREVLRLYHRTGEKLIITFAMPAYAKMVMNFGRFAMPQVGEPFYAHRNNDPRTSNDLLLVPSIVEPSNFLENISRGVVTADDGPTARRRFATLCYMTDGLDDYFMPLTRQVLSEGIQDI

Row | SMILES | LC-QTOF endpoint product detection (TyzAMtb) | LC-QTOF product detection, coupled with TrzAMtb (TrzSMsmeg)
1 | CCCCCCCCCCCC(=O)SCCNC(=O)CCNC(=O)[C@H](O)C(C)(C)COP(=O)(O)OP(=O)(O)OC[C@H]1O[C@@H](n2cnc3c(N)ncnc32)[C@H](O)[C@@H]1OP(=O)(O)O [C12:0-CoA] | we detected substantial amounts of C12:0-Tyr, C12:0-tyrazolone | –
2 | Nc1ncnc2c1ncn2[C@@H]1O[C@H](COP(=O)(O)OP(=O)(O)OP(=O)(O)O)[C@@H](O)[C@H]1O [ATP] | – | only the N-acyl tryptophan was observed when ATP was omitted from the reaction
3 | CCCC(=O)N[C@@H](Cc1c[nH]c2ccccc12)C(=O)O [C4:0-tryptophan] | – | we detected significant amounts of C4:0-tryptophan, produced by TrzAMtb, and C4:0-tryptazolone
